Patent publication US11667666B2, “Methods and compositions for treatment of cancer” (CFD Research Corporation, priority 2020, dated 2023)

test system: PANC-1 cells; experiment: Cell Titer-Glo luminescent cell viability assay, in vitro compound screening against pancreatic cancer cell lines; format: cell-based; conditions: 24 and 48-hour post dosing; 10 nM, 100 nM, 1 μM, 10 μM, and 100 μM; n=4
Description: In vitro compound screening against pancreatic cancer cell lines for IC50 determination. […] ASPC-1, BXPC-3, MIA-PaCa-2, and PANC-1 cell lines were obtained from ATCC. […] It should be noted that PANC-1, MIA-PaCa-2 and BxPC-3 cell-lines are gemcitabine-resistant cell-lines.
The IC50 was calculated using the following Log (inhibitor) versus Response equation: Y=Bottom+(Top−Bottom)/(1+10^((X-Log IC50))). Representative data and calculated IC50 values using the assay for representative compounds are shown FIGS. 4-7.

Compound	inhibition of cell-proliferation
CC1(C)O[C@@H]2C[C@H]3[C@@H]4CCC5=CC(=O)C=C[C@]5(C)[C@H]4[C@@H](O)C[C@]3(C)[C@]2(C(=O)CO)O1 [Compound 7, desonide]	did not show any appreciable inhibition of cell-proliferation
bentiromide [Compound 5]	did not show any appreciable inhibition of cell-proliferation
glimepiride [Compound 8]	did not show any appreciable inhibition of cell-proliferation
